Experimental data from PMC4928336, “A microalga, Euglena tuba induces apoptosis and suppresses metastasis in human lung and breast carcinoma cells through ROS-mediated regulation of MAPKs” (Cancer Cell International, 2016).
In brackets after ≈: the same amount, converted by molar mass.

Assays:
Assay in all cases: cells
MCF-7 cells = conditions: for IC50 against MCF-7: WST-1, 48 h, mean ± SD (n = 6); for IC50: Homo sapiens, MCF7, 48 h, read-out: IC50 against MCF-7
Description: (§1) Cell viability were analysed using the WST-1 cell proliferation reagent according to the earlier described technique. All cells (1 × 10^4 cells/well) were treated for 48 h with concentrations ranging from 0–200 µg/ml of ETME, ascorbic acid, catechin, tannic acid, reserpine, methyl gallate and rutin. Cell proliferation and viability were measured by measuring absorbance of the coloured product spectrophotometrically at 460 nm using a microplate ELISA reader […] EX (Thermo Electron Corporation, USA).
(§2) All spectrophotometric data were presented as the mean six times ±SD and cell cycle and ROS analysis data by FACS was introduced as the mean three times ±SD. The statistical analysis was determined by KyPlot version 2.0 beta 15 (32 bit). […] The IC50 values were compared by paired t test. P < 0.05 was considered significant.

WI-38 cells = conditions: for IC50 against WI-38: WST-1, 48 h, mean ± SD (n = 6); for IC50: Homo sapiens, WI-38, 48 h, read-out: IC50 against WI-38
Description: as §1, §2

A549 cells = conditions: for IC50 against A549: WST-1, 48 h, mean ± SD (n = 6); for IC50: Homo sapiens, A549, 48 h, read-out: IC50 against A549
Description: as §1, §2

IC50 against MCF-7 (MCF-7 cells) | IC50 against A549 (A549 cells) | IC50 (MCF-7 cells) | IC50 (A549 cells) | Compound | cytotoxicity against MCF-7 cells (MCF-7 cells) | cytotoxicity against WI-38 cells (WI-38 cells) | IC50 against WI-38 (WI-38 cells) | cytotoxicity against A549 cells (A549 cells) | IC50 (WI-38 cells)
256.52 ± 17.14 mg/L | 4010.65 ± 1849.57 mg/L | – | – | O.Oc1cc(O)c2c(c1)O[C@H](c1ccc(O)c(O)c1)[C@@H](O)C2 [Catechin] | toxic | negligible cytotoxicity | 753.56 ± 31.99 mg/L | negligible cytotoxicity | –
– | – | 57.3 ± 2.29 mg/L (≈ 94.1 µM) | 68.5 ± 1.73 mg/L (≈ 112 µM) | COC(=O)[C@H]1[C@H]2C[C@@H]3c4[nH]c5cc(OC)ccc5c4CCN3C[C@H]2C[C@@H](OC(=O)c2cc(OC)c(OC)c(OC)c2)[C@@H]1OC [Reserpine, reference compound] | promissive cytotoxicity | promissive cytotoxicity | – | promissive cytotoxicity | 50.5 ± 1.48 mg/L (≈ 82.9 µM)
97.24 ± 4.89 mg/L | 302.25 ± 11.86 mg/L | – | – | Tannic acid | promissive cytotoxicity | promissive cytotoxicity | 308.32 ± 8.32 mg/L | promissive cytotoxicity | –
– | – | 271 ± 9.85 mg/L (≈ 444 µM) | 4180 ± 1610 mg/L (≈ 6840 µM) | C[C@@H]1O[C@@H](OC[C@H]2O[C@@H](Oc3c(-c4ccc(O)c(O)c4)oc4cc(O)cc(O)c4c3=O)[C@H](O)[C@@H](O)[C@@H]2O)[C@H](O)[C@H](O)[C@H]1O [Rutin] | toxic | negligible cytotoxicity | – | negligible cytotoxicity | 1230 ± 195 mg/L (≈ 2020 µM)
– | – | 79.1 ± 2.2 mg/L (≈ 449 µM) | 6020 ± 3440 mg/L (≈ 34200 µM) | O=C1O[C@H]([C@@H](O)CO)C(O)=C1O [Ascorbic acid, reference compound] | toxic | negligible cytotoxicity | – | negligible cytotoxicity | 6800 ± 2250 mg/L (≈ 38600 µM)
– | – | 53 ± 1.91 mg/L (≈ 288 µM) | 77.2 ± 1.82 mg/L (≈ 420 µM) | COC(=O)c1cc(O)c(O)c(O)c1 [Methyl gallate] | promissive cytotoxicity | promissive cytotoxicity | – | promissive cytotoxicity | 344 ± 31.3 mg/L (≈ 1870 µM)
